For the assay, the target named is p97 ATPase WT (Homo sapiens (Human), UniProt P55072). Briefly: p97 ADP-Glo assay. Type of assay: biochemical. As to conditions: Table 3. From the text: ADP-Glo™ (Promega Corp.) is a bioluminescent, homogeneous assay that measures ADP formed from a biochemical reactions. Because of its high sensitivity, the assay is suitable for monitoring enzyme activities at very early substrate conversions requiring very low amount of enzymes.
The ADP-Glo assay can be conducted as described in Chou, T.-F.; Bulfer, S. L.; Weihl, C.
(ADP-Glo first removes unused ATP, then detects ADP through luciferase.)

The record followed here is patent US12559480B2, “Methods of treatment using phenyl indole allosteric inhibitors of P97 ATPase” (University of Pittsburgh—Of the Commonwealth System of …, priority 2015, dated 2026).

Chain of p97 ATPase WT (P55072 whole entry): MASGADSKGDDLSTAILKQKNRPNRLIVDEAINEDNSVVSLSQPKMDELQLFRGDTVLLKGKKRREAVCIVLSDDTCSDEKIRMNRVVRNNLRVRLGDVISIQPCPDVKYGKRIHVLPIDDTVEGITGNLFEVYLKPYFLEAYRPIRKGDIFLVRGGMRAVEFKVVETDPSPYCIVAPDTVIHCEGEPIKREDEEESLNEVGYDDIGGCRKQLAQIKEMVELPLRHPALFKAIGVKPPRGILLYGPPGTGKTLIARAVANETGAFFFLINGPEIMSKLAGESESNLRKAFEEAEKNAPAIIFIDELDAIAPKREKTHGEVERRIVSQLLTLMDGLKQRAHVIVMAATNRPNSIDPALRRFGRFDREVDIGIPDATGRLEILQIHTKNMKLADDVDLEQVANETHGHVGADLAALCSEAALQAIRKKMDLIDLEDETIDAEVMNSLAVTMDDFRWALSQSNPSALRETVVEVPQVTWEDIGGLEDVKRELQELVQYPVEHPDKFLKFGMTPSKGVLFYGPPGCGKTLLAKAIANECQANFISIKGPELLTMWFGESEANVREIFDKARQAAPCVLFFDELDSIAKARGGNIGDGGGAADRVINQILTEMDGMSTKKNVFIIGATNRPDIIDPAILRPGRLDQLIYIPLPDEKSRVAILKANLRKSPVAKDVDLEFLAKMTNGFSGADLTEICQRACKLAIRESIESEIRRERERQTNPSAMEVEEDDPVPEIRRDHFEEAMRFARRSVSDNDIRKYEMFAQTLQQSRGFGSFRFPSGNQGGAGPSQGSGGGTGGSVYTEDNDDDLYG

Consider `CC(C)N1CCC(NC2CCN(c3cccc(-c4cc5cc(C#N)ccc5[nH]4)c3)CC2)CC1`, for which the IC50 (commonly the concentration at which inhibition is half-maximal) came out at 6.2 µM.
